Assay results as given in ChEMBL document CHEMBL1149623, “Identification of antibacterial and antiviral activities of novel fused 1,2,4-triazine esters” (2007).

How the values were obtained:
[1] = Cytotoxicity against monkey GMK cells at 200 ug/mL after 24 hrs by MTT assay; format: functional, Chlorocebus aethiops
HEK293 [2] = assay: Cytotoxicity against human HEK293 cells at 50 ug/mL after 96 hrs by MTT assay; format: functional
[3] = Cytotoxicity against monkey GMK cells at 200 ug/mL after 72 hrs by MTT assay; format: functional, Chlorocebus aethiops
HEK293 [4] = assay: Cytotoxicity against human HEK293 cells at 5 ug/mL after 96 hrs by MTT assay; format: functional
[5] = Cytotoxicity against monkey GMK cells at 10 ug/mL after 96 hrs by MTT assay; format: functional, Chlorocebus aethiops
HEK293 [6] = assay: Cytotoxicity against human HEK293 cells at 10 ug/mL after 24 hrs by MTT assay; format: functional
[7] = Cytotoxicity against monkey GMK cells at 2.5 ug/mL after 96 hrs by MTT assay; format: functional, Chlorocebus aethiops
HEK293 [8] = assay: Cytotoxicity against human HEK293 cells at 200 ug/mL after 96 hrs by MTT assay; format: functional
Echovirus E9 [9] = assay: Antiviral activity against Human echovirus 9 in GMK cells assessed as virus titre at 100 ug/mL after 1 hr; format: functional
HEK293 [10] = assay: Cytotoxicity against human HEK293 cells at 200 ug/mL after 120 hrs by MTT assay; format: functional
HEK293 [11] = assay: Cytotoxicity against human HEK293 cells at 100 ug/mL after 24 hrs by MTT assay; format: functional
HEK293 [12] = assay: Cytotoxicity against human HEK293 cells at 5 ug/mL after 48 hrs by MTT assay; format: functional
[13] = Cytotoxicity against monkey GMK cells at 25 ug/mL after 96 hrs by MTT assay; format: functional, Chlorocebus aethiops
HEK293 [14] = assay: Cytotoxicity against human HEK293 cells at 100 ug/mL after 120 hrs by MTT assay; format: functional
HEK293 [15] = assay: Cytotoxicity against human HEK293 cells at 2.5 ug/mL after 96 hrs by MTT assay; format: functional
[16] = Cytotoxicity against monkey GMK cells at 100 ug/mL after 48 hrs by MTT assay; format: functional, Chlorocebus aethiops
[17] = Cytotoxicity against monkey GMK cells at 5 ug/mL after 72 hrs by MTT assay; format: functional, Chlorocebus aethiops
[18] = Cytotoxicity against monkey GMK cells at 25 ug/mL after 72 hrs by MTT assay; format: functional, Chlorocebus aethiops
Echovirus E9 [19] = assay: Antiviral activity against Human echovirus 9 in GMK cells assessed as virus titre at 200 ug/mL after 1 hr; format: functional
HEK293 [20] = assay: Cytotoxicity against human HEK293 cells at 25 ug/mL after 96 hrs by MTT assay; format: functional
HEK293 [21] = assay: Cytotoxicity against human HEK293 cells at 10 ug/mL after 72 hrs by MTT assay; format: functional
[22] = Cytotoxicity against monkey GMK cells at 5 ug/mL after 120 hrs by MTT assay; format: functional, Chlorocebus aethiops
[23] = Cytotoxicity against monkey GMK cells at 5 ug/mL after 96 hrs by MTT assay; format: functional, Chlorocebus aethiops
[24] = Cytotoxicity against monkey GMK cells at 2.5 ug/mL after 72 hrs by MTT assay; format: functional, Chlorocebus aethiops
[25] = Cytotoxicity against monkey GMK cells at 10 ug/mL after 120 hrs by MTT assay; format: functional, Chlorocebus aethiops
Human adenovirus 5 [26] = assay: Antiviral activity against Human adenovirus 5 in HEK293 cells assessed as virus titre at 200 ug/mL after 1 hr; format: functional
HEK293 [27] = assay: Cytotoxicity against human HEK293 cells at 50 ug/mL after 24 hrs by MTT assay; format: functional
Human adenovirus 5 [28] = assay: Antiviral activity against Human adenovirus 5 in HEK293 cells assessed as virus titre at 100 ug/mL after 1 hr; format: functional
[29] = Cytotoxicity against monkey GMK cells at 10 ug/mL after 48 hrs by MTT assay; format: functional, Chlorocebus aethiops
Echovirus E9 [30] = assay: Antiviral activity against Human echovirus 9 in GMK cells assessed as virus titre at 50 ug/mL after 1 hr; format: functional
HEK293 [31] = assay: Cytotoxicity against human HEK293 cells at 25 ug/mL after 72 hrs by MTT assay; format: functional
[32] = Cytotoxicity against monkey GMK cells at 50 ug/mL after 48 hrs by MTT assay; format: functional, Chlorocebus aethiops
HEK293 [33] = assay: Cytotoxicity against human HEK293 cells at 2.5 ug/mL after 72 hrs by MTT assay; format: functional
[34] = Cytotoxicity against monkey GMK cells at 10 ug/mL after 72 hrs by MTT assay; format: functional, Chlorocebus aethiops
HEK293 [35] = assay: Cytotoxicity against human HEK293 cells at 5 ug/mL after 120 hrs by MTT assay; format: functional
[36] = Cytotoxicity against monkey GMK cells at 200 ug/mL after 48 hrs by MTT assay; format: functional, Chlorocebus aethiops
HEK293 [37] = assay: Cytotoxicity against human HEK293 cells at 25 ug/mL after 120 hrs by MTT assay; format: functional
[38] = Cytotoxicity against monkey GMK cells at 200 ug/mL after 96 hrs by MTT assay; format: functional, Chlorocebus aethiops
HEK293 [39] = assay: Cytotoxicity against human HEK293 cells at 200 ug/mL after 48 hrs by MTT assay; format: functional
[40] = Cytotoxicity against monkey GMK cells at 5 ug/mL after 48 hrs by MTT assay; format: functional, Chlorocebus aethiops
HEK293 [41] = assay: Cytotoxicity against human HEK293 cells at 50 ug/mL after 120 hrs by MTT assay; format: functional
[42] = Cytotoxicity against monkey GMK cells at 25 ug/mL after 24 hrs by MTT assay; format: functional, Chlorocebus aethiops
HEK293 [43] = assay: Cytotoxicity against human HEK293 cells at 5 ug/mL after 24 hrs by MTT assay; format: functional
[44] = Cytotoxicity against monkey GMK cells at 50 ug/mL after 96 hrs by MTT assay; format: functional, Chlorocebus aethiops
HEK293 [45] = assay: Cytotoxicity against human HEK293 cells at 200 ug/mL after 72 hrs by MTT assay; format: functional
HEK293 [46] = assay: Cytotoxicity against human HEK293 cells at 2.5 ug/mL after 48 hrs by MTT assay; format: functional
[47] = Cytotoxicity against monkey GMK cells at 2.5 ug/mL after 120 hrs by MTT assay; format: functional, Chlorocebus aethiops
[48] = Cytotoxicity against monkey GMK cells at 50 ug/mL after 120 hrs by MTT assay; format: functional, Chlorocebus aethiops
HEK293 [49] = assay: Cytotoxicity against human HEK293 cells at 25 ug/mL after 24 hrs by MTT assay; format: functional
HEK293 [50] = assay: Cytotoxicity against human HEK293 cells at 25 ug/mL after 48 hrs by MTT assay; format: functional
[51] = Cytotoxicity against monkey GMK cells at 25 ug/mL after 48 hrs by MTT assay; format: functional, Chlorocebus aethiops
HEK293 [52] = assay: Cytotoxicity against human HEK293 cells at 2.5 ug/mL after 120 hrs by MTT assay; format: functional
[53] = Cytotoxicity against monkey GMK cells at 100 ug/mL after 72 hrs by MTT assay; format: functional, Chlorocebus aethiops
[54] = Cytotoxicity against monkey GMK cells at 50 ug/mL after 24 hrs by MTT assay; format: functional, Chlorocebus aethiops
[55] = Cytotoxicity against monkey GMK cells at 2.5 ug/mL after 24 hrs by MTT assay; format: functional, Chlorocebus aethiops
HEK293 [56] = assay: Cytotoxicity against human HEK293 cells at 10 ug/mL after 120 hrs by MTT assay; format: functional
[57] = Cytotoxicity against monkey GMK cells at 100 ug/mL after 120 hrs by MTT assay; format: functional, Chlorocebus aethiops

CCOC(=O)CC1NN=C2N(CCN2c2ccc(C)cc2)C1=O (centres undefined)
80%: Activity [13] | Activity [16] | Activity [32]
15%: Activity (HEK293 [8]) | Activity (HEK293 [10]) | Activity (HEK293 [45])
85%: Activity [18]
20%: Activity (HEK293 [39])
75%: Activity (HEK293 [41])
95%: Activity [5] | Activity (HEK293 [20]) | Activity (HEK293 [37])
2.5 mL⁻¹: TCID50 (Human adenovirus 5 [26]) | TCID50 (Human adenovirus 5 [28])
90%: Activity [25] | Activity (HEK293 [27]) | Activity [51] | Activity [54]
100%: Activity (HEK293 [4]) | Activity (HEK293 [6]) | Activity [7] | Activity (HEK293 [12]) | Activity (HEK293 [15]) | Activity [17] | Activity (HEK293 [21]) | Activity [22] | Activity [23] | Activity [24] | Activity [29] | Activity (HEK293 [31]) | Activity (HEK293 [33]) | Activity [34] | Activity (HEK293 [35]) | Activity [40] | Activity [42] | Activity (HEK293 [43]) | Activity (HEK293 [46]) | Activity [47] | Activity (HEK293 [49]) | Activity (HEK293 [50]) | Activity (HEK293 [52]) | Activity [55] | Activity (HEK293 [56])
70%: Activity (HEK293 [2]) | Activity (HEK293 [11]) | Activity (HEK293 [14]) | Activity [44] | Activity [48] | Activity [53] | Activity [57]
0%: Activity [1] | Activity [3] | Activity [36] | Activity [38]
3.67 mL⁻¹: TCID50 (Echovirus E9 [9]) | TCID50 (Echovirus E9 [19]) | TCID50 (Echovirus E9 [30])

CCOC(=O)CC1NN=C2N(CCN2c2ccc(Cl)cc2)C1=O (centres undefined)
4.23 mL⁻¹: TCID50 (Echovirus E9 [30])
50%: Activity (HEK293 [14])
3.5 mL⁻¹: TCID50 (Echovirus E9 [19]) | TCID50 (Human adenovirus 5 [26]) | TCID50 (Human adenovirus 5 [28])
20%: Activity (HEK293 [10])
25%: Activity (HEK293 [8]) | Activity (HEK293 [45])
100%: Activity [1] | Activity (HEK293 [2]) | Activity [3] | Activity (HEK293 [4]) | Activity [5] | Activity (HEK293 [6]) | Activity [7] | Activity (HEK293 [12]) | Activity [13] | Activity (HEK293 [15]) | Activity [16] | Activity [17] | Activity [18] | Activity (HEK293 [20]) | Activity (HEK293 [21]) | Activity [22] | Activity [23] | Activity [24] | Activity [25] | Activity (HEK293 [27]) | Activity [29] | Activity (HEK293 [31]) | Activity [32] | Activity (HEK293 [33]) | Activity [34] | Activity (HEK293 [35]) | Activity [36] | Activity (HEK293 [37]) | Activity [40] | Activity (HEK293 [41]) | Activity [42] | Activity (HEK293 [43]) | Activity [44] | Activity (HEK293 [46]) | Activity [47] | Activity [48] | Activity (HEK293 [49]) | Activity (HEK293 [50]) | Activity [51] | Activity (HEK293 [52]) | Activity [53] | Activity [54] | Activity [55] | Activity (HEK293 [56]) | Activity [57]
95%: Activity (HEK293 [11]) | Activity [38]
3.67 mL⁻¹: TCID50 (Echovirus E9 [9])
30%: Activity (HEK293 [39])
